Test results from US12102648B2, “Orally-bioavailable nucleoside analogs” (priority 2021, dated 2024).
Like-named read-outs stand apart in the source and are kept apart here.

Test: in vitro
Type: in vitro ADME
Settings: human
Method in brief: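 Caco-2 monolayers cultured 19 days on inserts (TEER >600 […]); bidirectional A-to-B and B-to-A transport at 37° C over 90 min, samples quantified by LC/MS/MS. Papp, efflux ratio and recovery calculated; ER >2 flags potential efflux substrates.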

[1] = Caco-2 monolayer, apical to basolateral, 90-minute incubation, read-out: Papp, A-B
[2] = Caco-2 monolayer, basolateral to apical, 90-minute incubation, read-out: Papp, B-A
[3] = Caco-2 monolayer, ER>2 indicates potential efflux transporter substrate, read-out: ER (efflux ratio)

SMILES | Papp A→B at 90 min (Caco-2) [nm/s] | Papp B→A at 90 min (Caco-2) [nm/s] | efflux ratio at 90 min (Caco-2) | Papp A→B at 90 min [1] [nm/s] | Papp B→A at 90 min [2] [nm/s] | efflux ratio at 90 min [3]
N#C[C@@]1(c2ccc3c(N)ncnn23)O[C@H](COC(=O)CC2(N)CCCCC2)[C@@H](OC(=O)CC2CCCCC2)[C@H]1O [Compound 368, (2R,3S,4R,5R)-2-((2-(1-aminocyclohexyl)acetoxy)methyl)-5-(4-aminopyrrolo[2,1-f][1,2,4]triazin-7-yl)-5-cyano-4-hydroxytetrahydrofuran-3-yl 2-cyclohexylacetate] | 14 | 180 | 13 | – | – | –
CCC(=O)O[C@H]1[C@@H](O)[C@](C#N)(c2ccc3c(NC(=O)OCOC(C)=O)ncnn23)O[C@@H]1COC(=O)[C@@H](N)C(C)C [Compound 364, ((2R,3S,4R,5R)-5-(4-(((acetoxymethoxy)carbonyl)amino)pyrrolo[2,1-f][1,2,4]triazin-7-yl)-5-cyano-4-hydroxy-3-(propionyloxy)tetrahydrofuran-2-yl)methyl L-valinate] | 18 | 20 | 1.1 | – | – | –
CCCCC(=O)Nc1ncnn2c([C@]3(C#N)O[C@H](COC(=O)C(C)C)[C@@H](O)[C@H]3O)ccc12 [Compound 276, ((2R,3S,4R,5R)-5-cyano-3,4-dihydroxy-5-(4-pentanamidopyrrolo[2,1-f][1,2,4]triazin-7-yl)tetrahydrofuran-2-yl)methyl isobutyrate] | 3.6 | 29 | 8 | – | – | –
CC(C)(C)C(=O)OCOC(=O)Nc1ncnn2c([C@]3(C#N)O[C@H](COC(=O)[C@@H](N)Cc4ccccc4)[C@@H](OC(=O)CC4CCCCC4)[C@H]3O)ccc12 [Compound 374, (((7-((2R,3R,4S,5R)-5-(((L-phenylalanyl)oxy)methyl)-2-cyano-4-(2-cyclohexylacetoxy)-3-hydroxytetrahydrofuran-2-yl)pyrrolo[2,1-f][1,2,4]triazin-4-yl)carbamoyl)oxy)methyl pivalate] | 0.04 | 0.8 | 19 | – | – | –
CCC(=O)Nc1nc(NC)c2ncn([C@@H]3O[C@H](COC(C)=O)[C@@H](OC(=O)CC)[C@@]3(C)F)c2n1 [Compound 331, (2R,3R,4R,5R)-2-(acetoxymethyl)-4-fluoro-4-methyl-5-(6-(methylamino)-2-propionamido-9H-purin-9-yl)tetrahydrofuran-3-yl propionate] | 79 | 160 | 2.1 | – | – | –
CCC(=O)OC[C@H]1O[C@@](C#N)(c2ccc3c(N)ncnn23)[C@H](O)[C@@H]1OC(=O)[C@@H](N)C(C)C [Compound 67, (2R,3S,4R,5R)-5-{4-aminopyrrolo[2,1-f][1,2,4]triazin-7-yl}-5-cyano-4-hydroxy-2-[(propanoyloxy)methyl]oxolan-3-yl(2S)-2-amino-3-methylbutanoate] | 3 | 1 | 0.33 | – | – | –
CC(C)[C@H](N)C(=O)Nc1ncnn2c([C@]3(C#N)O[C@H](COC(=O)Cc4ccccc4)[C@@H](O)[C@H]3O)ccc12 [Compound 113] | – | – | – | 0.1 | 48 | 320
CS(=O)(=O)N1CCC(CC(=O)OC[C@H]2O[C@@](C#N)(c3ccc4c(N)ncnn34)[C@H](O)[C@@H]2O)CC1 [Compound 268, ((2R,3S,4R,5R)-5-(4-aminopyrrolo[2,1-f][1,2,4]triazin-7-yl)-5-cyano-3,4-dihydroxytetrahydrofuran-2-yl)methyl 2-(1-(methylsulfonyl)piperidin-4-yl)acetate] | 0.4 | 18 | 45 | – | – | –
N#C[C@@]1(c2ccc3c(N)ncnn23)O[C@H](COC(=O)CC2CCC3(CCCC3)CC2)[C@@H](O)[C@H]1O [Compound 279, ((2R,3S,4R,5R)-5-(4-aminopyrrolo[2,1-f][1,2,4]triazin-7-yl)-5-cyano-3,4-dihydroxytetrahydrofuran-2-yl)methyl 2-(spiro[4.5]decan-8-yl)acetate] | 14 | 9 | 0.64 | – | – | –
CC(=O)O[C@H]1[C@@H](O)[C@](C#N)(c2ccc3c(N)ncnn23)O[C@@H]1COC(=O)[C@@H](N)C(C)C [Compound 37, ((2R,3S,4R,5R)-3-acetoxy-5-(4-aminopyrrolo[2,1-f][1,2,4]triazin-7-yl)-5-cyano-4-hydroxytetrahydrofuran-2-yl)methyl L-valinate] | 3.7 | 1.2 | 0.33 | – | – | –
CC(C)[C@H](N)C(=O)OC[C@H]1O[C@@](C#N)(c2ccc3c(N)ncnn23)[C@H](O)[C@@H]1O [Compound 11, ((2R,3S,4R,5R)-5-(4-aminopyrrolo[2,1-f][1,2,4]triazin-7-yl)-5-cyano-3,4-dihydroxytetrahydrofuran-2-yl)methyl L-valinate] | 4 | 1 | 0.4 | – | – | –
N#C[C@@]1(c2ccc3c(N)ncnn23)O[C@H](COC(=O)C[C@H]2CC[C@H](N)CC2)[C@@H](O)[C@H]1O [Compound 266, ((2R,3S,4R,5R)-5-(4-aminopyrrolo[2,1-f][1,2,4]triazin-7-yl)-5-cyano-3,4-dihydroxytetrahydrofuran-2-yl)methyl 2-((1r,4R)-4-aminocyclohexyl)acetate] | 1.9 | 3.8 | 2 | – | – | –
CC(C)[C@H](N)C(=O)Nc1ncnn2c([C@]3(C#N)O[C@H](CO)[C@@H](OC(=O)[C@@H](N)C(C)C)[C@H]3O)ccc12 [Compound 129, (2R,3S,4R,5R)-5-{4-[(2S)-2-amino-3-methylbutanamido]pyrrolo[2,1-f][1,2,4]triazin-7-yl}-5-cyano-4-hydroxy-2-(hydroxymethyl)oxolan-3-yl (2S)-2-amino-3-methylbutanoate] | 0.3 | 0.2 | 0.7 | – | – | –
CC(C)CC(=O)OC[C@H]1O[C@@](C#N)(c2ccc3c(NC(=O)c4ccccc4)ncnn23)[C@H](O)[C@@H]1O [Compound 109] | 14 | 13 | 0.9 | – | – | –
CC(C)[C@H](N)C(=O)Nc1ncnn2c([C@]3(C#N)O[C@H](CO)[C@@H](OC(=O)CC4CCCCC4)[C@H]3O)ccc12 [Compound 139, (2R,3S,4R,5R)-5-(4-((S)-2-amino-3-methylbutanamido)pyrrolo[2,1-f][1,2,4]triazin-7-yl)-5-cyano-4-hydroxy-2-(hydroxymethyl)tetrahydrofuran-3-yl 2-cyclohexylacetate] | 1.8 | 61 | 34 | – | – | –
CCC(=O)OC[C@H]1O[C@@](C#N)(c2ccc3c(N)ncnn23)[C@H](O)[C@@H]1O [Compound 15, ((2R,3S,4R,5R)-5-(4-aminopyrrolo[2,1-f][1,2,4]triazin-7-yl)-5-cyano-3,4-dihydroxytetrahydrofuran-2-yl)methyl propionate] | – | – | – | 29 | 70 | 3.4
CC(=O)OC[C@H]1O[C@@](C#N)(c2ccc3c(N)ncnn23)[C@H](O)[C@@H]1OCOC(=O)C(C)(C)C [Compound 56, {[(2R,3S,4R,5R)-2-[(acetyloxy)methyl]-5-{4-aminopyrrolo[2,1-f][1,2,4]triazin-7-yl}-5-cyano-4-hydroxyoxolan-3-yl]oxy}methyl 2,2-dimethylpropanoate] | 47 | 40 | 0.84 | – | – | –
C[C@H]1CC[C@H](CC(=O)OC[C@H]2O[C@@](C#N)(c3ccc4c(N)ncnn34)[C@H](O)[C@@H]2O)CC1 [Compound 278, ((2R,3S,4R,5R)-5-(4-aminopyrrolo[2,1-f][1,2,4]triazin-7-yl)-5-cyano-3,4-dihydroxytetrahydrofuran-2-yl)methyl 2-((1r,4R)-4-methylcyclohexyl)acetate] | 22 | 49 | 2.2 | – | – | –
CC(C)C(=O)O[C@H]1[C@@H](O)[C@](C#N)(c2ccc3c(N)ncnn23)O[C@@H]1COC(=O)[C@@H](N)C(C)C [Compound 38, ((2R,3S,4R,5R)-5-(4-aminopyrrolo[2,1-f][1,2,4]triazin-7-yl)-5-cyano-4-hydroxy-3-(isobutyryloxy)tetrahydrofuran-2-yl)methyl L-valinate] | 2.2 | 33 | 15 | – | – | –
CC(=O)O[C@H]1[C@@H](O)[C@](C#N)(c2ccc3c(N)ncnn23)O[C@@H]1COC(=O)CC1CCCCC1 [Compound 29, ((2R,3S,4R,5R)-3-acetoxy-5-(4-aminopyrrolo[2,1-f][1,2,4]triazin-7-yl)-5-cyano-4-hydroxytetrahydrofuran-2-yl)methyl 2-cyclohexylacetate] | 20 | 21 | 1.1 | – | – | –
CC(C)CC(=O)OC[C@H]1O[C@@](C#N)(c2ccc3c(NC(=O)[C@@H](N)C(C)C)ncnn23)[C@H](O)[C@@H]1O [Compound 117, [(2R,3S,4R,5R)-5-{4-[(2S)-2-amino-3-methylbutanamido]pyrrolo[2,1-f][1,2,4]triazin-7-yl}-5-cyano-3,4-dihydroxyoxolan-2-yl]methyl 3-methylbutanoate] | 2.2 | 33 | 15 | – | – | –
N#C[C@@]1(c2ccc3c(N)ncnn23)O[C@H](COC(=O)Cc2ccccc2)[C@@H](OC(=O)Cc2ccccc2)[C@H]1O [Compound 44, (2R,3S,4R,5R)-5-(4-aminopyrrolo[2,1-f][1,2,4]triazin-7-yl)-5-cyano-4-hydroxy-2-((2-phenylacetoxy)methyl)tetrahydrofuran-3-yl 2-phenylacetate] | – | – | – | 98 | 250 | 2.5
